Holding throughout (test): DTP human tumour cell line panel, 48 h
Experiment [1] deals with HT29 colon.
Experiment [2] relates to NCI/ADR-RES ovarian.
Experiment [3] deals with UACC-257 melanoma.
Experiment [4] has as its system SK-MEL-2 melanoma.
Experiment [5] concerns SF-268 CNS.
The subject of experiment [6] is CAKI-1 renal.
Experiment [7] deals with KM12 colon.
Experiment [8] deals with IGROV1 ovarian.
Experiment [9] has as its system LOX IMVI melanoma.
Experiment [10] has as its system SF-295 CNS.

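How tested: cells in 96-well plates exposed to compound for 48 hours at five concentrations. GI50 is the concentration that inhibits growth by half. TGI: concentration producing complete growth inhibition.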

Usually GI50 stands for the concentration at which growth is held to half of that of the control. As a reminder, the TGI is the concentration giving total growth inhibition. In the case of `COc1ccc(-c2nc(N)c(C#N)c3c2CCOc2c-3ccc3ccccc23)cc1`, the GI50 in experiment [1] was 52.7 µM; in [2], 17.5 µM; in experiment [3] it was 13.7 µM; in experiment [4], 36.8 µM; in experiment [5] it was 11.1 µM; in experiment [6], 3.32 µM. The GI50 in experiment [7] is 42.7 µM. In addition, the total growth inhibition concentration (TGI) in experiment [1] was greater than 100 µM; in experiment [2] it was 57.8 µM; in experiment [3], 37.8 µM; in [4], greater than 100 µM; in experiment [5], 39.8 µM; in [6], 19.6 µM. The concentration for total growth inhibition (TGI) in experiment [7] was greater than 100 µM.

`CC(C)(C)c1nc(-c2cccc(NS(=O)(=O)c3c(F)cccc3F)c2F)c(-c2ccnc(N)n2)s1`: the GI50 is less than 0.01 µM in [1]; 50.9 µM in [2]; 56.1 µM in experiment [8]; 0.233 µM in experiment [9]; 55.6 µM in experiment [10]; 51 µM in experiment [5]. Also, the GI50 in [7] is 23.8 µM. Moreover, the TGI in experiment [1], in experiment [2], in experiment [8], in [9], in experiment [10] and in [5] was greater than 100 µM each time. For the same molecule, the concentration for total growth inhibition (TGI) in experiment [7] is greater than 92.4 µM.

Take `CC(=O)O[C@H](C[C@H](C(C)C)N(C)C(=O)[C@@H](NC(=O)[C@H]1CCCCN1C)C(C)C)c1cccc(C(=O)N[C@@H](Cc2ccccc2)C[C@H](C)C(=O)O)n1`: the GI50 in experiment [1] is 0.0242 µM; in experiment [2], 2.06 µM; in experiment [8], 0.0287 µM; in experiment [4] it was 0.0159 µM; in experiment [9], 0.0255 µM; in experiment [10], 0.0333 µM. Besides, the 50% growth inhibitory concentration (GI50) in experiment [5] was 0.05 µM; in experiment [6], 0.0686 µM; in experiment [7], 0.0262 µM. Further, the TGI was greater than 8.21 µM in experiment [1]; greater than 10.6 µM in experiment [2]; greater than 25 µM in [8]; greater than 25 µM in experiment [4]; greater than 25 µM in [9]; greater than 5.29 µM in experiment [10]. Moreover, the TGI in experiment [5], in experiment [6] and in experiment [7] was greater than 25 µM each time.

As for `CCOc1ccc(C(C)=O)cc1NC(=O)c1cccc(-c2nnn(CC)n2)c1`, the GI50 is 0.325 µM in [1]; 0.511 µM in [2]; 5.7 µM in experiment [8]; 0.44 µM in experiment [4]; 0.59 µM in [9]; 0.306 µM in experiment [10]. Besides, the results for the GI50 in experiment [5] and in [6] were 0.901 µM and 0.939 µM, respectively. Besides, the concentration for total growth inhibition (TGI) is greater than 100 µM in experiment [1]; 13.3 µM in experiment [2]; greater than 100 µM in experiment [8]; 24 µM in [4]; 70.2 µM in [9]; 5.74 µM in experiment [10]. The TGI in [5] and in experiment [6] was greater than 100 µM in each case.

As to `CCC(C)(O)c1cn(-c2ccc(S(=O)(=O)O)cc2)nn1` (stereo unspecified), the TGI in experiment [1], in [3], in experiment [8], in [4], in experiment [9] and in [10] was greater than 100 µM throughout. Also, the TGI in experiment [5], in experiment [6] and in experiment [7] was greater than 100 µM throughout.

Consider `COc1cc2c3c(c1OC)C(=O)C=C3N(S(=O)(=O)c1ccc(C)cc1)CC2`, for which the TGI in experiment [1], in [3], in [8], in [4], in experiment [9] and in [10] was greater than 100 µM in each case. For the same molecule, the TGI in experiment [5], in experiment [6] and in experiment [7] was greater than 100 µM each time.

As to `COC(=O)CC(=O)NCC1=CCC(=O)CC1`, the TGI in experiment [1], in experiment [3], in experiment [8], in experiment [4], in [9] and in [10] was greater than 100 µM in each case. Further, the TGI in experiment [5], in [6] and in experiment [7] was greater than 100 µM throughout.

As to `Cc1ccc(O)c(NC2=C(Cl)C(=O)N(Cc3ccccc3)C2=O)c1`, the GI50 was 33.3 µM in experiment [1]; 38.1 µM in [2]; 6.44 µM in experiment [8]; 19 µM in experiment [4]; 20.3 µM in experiment [9]; 26.2 µM in [10]. The GI50 in [5] was 18.8 µM; in experiment [6], 27.5 µM; in experiment [7], 40.7 µM. In addition, the TGI in experiment [1] is greater than 100 µM; in experiment [2], greater than 100 µM; in experiment [8], 24.2 µM; in experiment [4] it was 39 µM; in [9], 45.7 µM; in experiment [10] it was 71.2 µM. In addition, the total growth inhibition concentration (TGI) in experiment [5] was 47.1 µM; in experiment [6] it was 82.3 µM; in experiment [7] it was greater than 100 µM.

Consider `CCCCCCCCCCOC(=O)c1cc[n+](C)cc1`, for which the concentration for total growth inhibition (TGI) in [1] came to 31.1 µM; in [3], 34 µM; in experiment [8] it was 30.4 µM; in experiment [4] it was 49.1 µM; in experiment [9], 32.6 µM; in experiment [10] it was 30.3 µM. The values for the TGI in experiment [5], in experiment [6] and in [7] were 35.3 µM, 30.4 µM and 31.3 µM, respectively.

Consider `COc1cc(NC(C)CCCNC(C)C)c2ncccc2c1OC` (stereo unspecified), for which the GI50 is greater than 100 µM in [2]; greater than 100 µM in [3]; 13.4 µM in experiment [8]; greater than 100 µM in [9]; greater than 100 µM in experiment [10]; greater than 100 µM in experiment [5]. Further, the GI50 in experiment [6] and in experiment [7] was greater than 100 µM each time. Besides, the TGI in experiment [2] was greater than 100 µM; in experiment [3], greater than 100 µM; in [8], 44.3 µM; in [9] it was greater than 100 µM; in [10] it was greater than 100 µM; in [5], greater than 100 µM. For the same molecule, the TGI in experiment [6] and in [7] was greater than 100 µM throughout.

Regarding `NC(=S)N/N=C1/CN(c2ccc(Cl)c(Cl)c2)CC(=O)C1c1nc2ccccc2s1` (stereo unspecified), the concentration for total growth inhibition (TGI) in [1], in experiment [3], in experiment [8], in experiment [4], in [9] and in [10] was greater than 100 µM throughout. For the same molecule, the total growth inhibition concentration (TGI) in experiment [5], in experiment [6] and in experiment [7] was greater than 100 µM throughout.

For the origin of these results see PubChem BioAssay (NCI).
